In assay [1] the target is T1, NSD2 (Homo sapiens, UniProt O96028).
T1 construct: full length (residues 2-1365), N-terminal His tag, insect cell/baculovirus
T1 sequence (O96028 2-1365): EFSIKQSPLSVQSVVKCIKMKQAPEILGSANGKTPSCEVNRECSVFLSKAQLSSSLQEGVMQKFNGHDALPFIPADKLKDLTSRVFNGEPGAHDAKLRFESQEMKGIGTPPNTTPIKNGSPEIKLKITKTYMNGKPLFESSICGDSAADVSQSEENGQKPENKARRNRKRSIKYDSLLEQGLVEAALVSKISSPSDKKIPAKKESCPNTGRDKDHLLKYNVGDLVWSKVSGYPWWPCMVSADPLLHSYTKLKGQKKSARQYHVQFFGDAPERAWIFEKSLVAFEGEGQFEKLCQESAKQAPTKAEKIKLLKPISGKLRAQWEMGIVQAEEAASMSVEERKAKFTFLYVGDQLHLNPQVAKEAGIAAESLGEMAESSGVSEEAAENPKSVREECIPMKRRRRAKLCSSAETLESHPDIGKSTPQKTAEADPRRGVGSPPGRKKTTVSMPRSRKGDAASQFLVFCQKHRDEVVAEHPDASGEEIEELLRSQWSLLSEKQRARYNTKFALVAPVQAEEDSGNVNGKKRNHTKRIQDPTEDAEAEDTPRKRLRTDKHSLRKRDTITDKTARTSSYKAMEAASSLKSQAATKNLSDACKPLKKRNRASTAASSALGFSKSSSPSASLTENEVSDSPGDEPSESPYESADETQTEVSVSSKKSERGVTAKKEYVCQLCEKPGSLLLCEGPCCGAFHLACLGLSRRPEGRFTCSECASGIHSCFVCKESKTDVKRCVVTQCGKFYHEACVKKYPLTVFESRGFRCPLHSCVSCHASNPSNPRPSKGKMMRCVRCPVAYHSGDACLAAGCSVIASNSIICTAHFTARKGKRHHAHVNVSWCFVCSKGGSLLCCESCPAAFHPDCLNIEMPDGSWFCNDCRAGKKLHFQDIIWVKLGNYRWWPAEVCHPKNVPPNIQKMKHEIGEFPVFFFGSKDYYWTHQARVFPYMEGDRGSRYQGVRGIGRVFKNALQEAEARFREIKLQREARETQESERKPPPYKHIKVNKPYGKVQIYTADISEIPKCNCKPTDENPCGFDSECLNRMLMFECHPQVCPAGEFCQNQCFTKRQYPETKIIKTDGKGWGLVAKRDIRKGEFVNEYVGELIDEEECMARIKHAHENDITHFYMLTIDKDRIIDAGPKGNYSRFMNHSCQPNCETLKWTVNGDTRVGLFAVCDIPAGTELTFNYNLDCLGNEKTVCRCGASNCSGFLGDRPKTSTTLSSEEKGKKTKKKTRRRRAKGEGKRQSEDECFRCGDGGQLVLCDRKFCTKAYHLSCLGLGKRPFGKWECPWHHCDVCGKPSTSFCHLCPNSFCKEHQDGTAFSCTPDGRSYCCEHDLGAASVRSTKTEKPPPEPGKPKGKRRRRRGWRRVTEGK
As to the kind of experiment: biochemical. Further details: MTase-Glo bioluminescence methyltransferase assay, full-length NSD2 with HeLa nucleosomes. Conditions: read-out: MTase-Glo IC50. The source says: A major challenge in screening for small molecule inhibitors is that native NSD2 requires nucleosomes as a substrate ([17]). […] Chemical libraries were screened in 3-dose point quantitative high-throughput screening (qHTS) format ([43]) with the Methyltransferase-Glo (MTase-Glo™) methyltransferase bioluminescence assay ([44]). A number of counter and orthogonal assays were also developed to characterize the hits from the primary screen. Confirmed hits were validated with a radiolabeled SAM substrate-based NSD2 activity assay and further interrogated with binding studies by surface plasmon resonance (SPR), methyltransferase profiling, and activity assessments in U-2 OS cells. […] Overall the reaction conditions were very similar.

Assay [2] addresses T2, PRMT5/MEP50 Complex (Homo sapiens, UniProt O14744).
T2 construct: coexpressed Flag-PRMT5 and His-MEP50, insect cell/baculovirus; with Methylosome protein WDR77
As to the kind of experiment: HotSpot [3H]SAM filter-binding methyltransferase assay. The conditions noted are these: histone H2A, […] SAM, pH […] DTT, […] °C, single experiment. It is filed as biochemical.

Molecules are shown by their SMILES.

Our source for the IC50 values is paper doi:10.1101/208439v1 (biorxiv, 2017).

T2 sequence (O14744 2-637): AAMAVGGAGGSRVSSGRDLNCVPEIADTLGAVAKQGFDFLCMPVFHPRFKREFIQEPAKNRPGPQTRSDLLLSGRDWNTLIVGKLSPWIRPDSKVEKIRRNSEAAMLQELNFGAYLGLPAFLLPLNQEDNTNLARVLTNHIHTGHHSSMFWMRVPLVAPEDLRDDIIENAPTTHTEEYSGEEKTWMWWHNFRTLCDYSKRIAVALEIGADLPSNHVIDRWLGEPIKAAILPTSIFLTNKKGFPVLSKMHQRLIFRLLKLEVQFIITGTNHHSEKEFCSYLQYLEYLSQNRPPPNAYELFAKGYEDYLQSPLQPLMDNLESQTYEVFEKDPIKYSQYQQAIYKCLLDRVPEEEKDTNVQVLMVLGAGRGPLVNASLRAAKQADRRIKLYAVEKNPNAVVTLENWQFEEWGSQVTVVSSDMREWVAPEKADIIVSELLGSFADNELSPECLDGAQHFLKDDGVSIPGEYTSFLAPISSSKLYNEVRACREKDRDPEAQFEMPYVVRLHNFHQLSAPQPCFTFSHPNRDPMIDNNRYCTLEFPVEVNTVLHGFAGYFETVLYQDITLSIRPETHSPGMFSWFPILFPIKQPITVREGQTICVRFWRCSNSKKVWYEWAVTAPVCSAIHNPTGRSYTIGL
T2 sequence (Q9BQA1 2-342 partner): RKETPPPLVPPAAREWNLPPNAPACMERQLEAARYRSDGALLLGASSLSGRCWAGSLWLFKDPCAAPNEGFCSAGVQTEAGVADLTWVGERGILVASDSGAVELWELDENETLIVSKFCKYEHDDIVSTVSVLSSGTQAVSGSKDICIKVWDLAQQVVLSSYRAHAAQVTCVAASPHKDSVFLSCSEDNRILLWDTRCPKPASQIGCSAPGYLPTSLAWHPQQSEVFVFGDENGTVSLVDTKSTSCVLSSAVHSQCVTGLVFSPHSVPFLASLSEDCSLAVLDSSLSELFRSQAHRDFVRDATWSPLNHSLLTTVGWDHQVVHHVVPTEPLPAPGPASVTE

On to `CC1(C)CCC(CN2CCN(c3ccc(C(=O)NS(=O)(=O)c4ccc(NCC5CCOCC5)c([N+](=O)[O-])c4)c(Oc4cnc5[nH]ccc5c4)c3)CC2)=C(c2ccc(Cl)cc2)C1` [ABT-199], for which, in assay [1], the IC50 (in general, the midpoint of a concentration-inhibition curve) was 15 µM.

The compound `COc1cccc(-n2nc(C(=O)O)cc2-c2ccc(C3CCCCC3)c(Cl)c2)c1` [TC LPA5 4] came in with an IC50 in assay [2] of 0.33 µM.
